Assay results from US20150290200A1, “INTRACELLULAR KINASE INHIBITORS” (Pharmacyclics Inc., priority 2006, published 2015).
Like-named read-outs stand apart in the source and are kept apart here.

Legend:
ITK kinase domain = target: T1, ITK kinase domain (Homo sapiens, UniProt Q08881); test: In vitro kinase assay (HITHUNTER enzyme fragment complementation), ITK; type: biochemical
T1 construct: N-terminally His-tagged ITK kinase domain (amino acids 352-617); His (N); made in house
T1 sequence (Q08881 352-617): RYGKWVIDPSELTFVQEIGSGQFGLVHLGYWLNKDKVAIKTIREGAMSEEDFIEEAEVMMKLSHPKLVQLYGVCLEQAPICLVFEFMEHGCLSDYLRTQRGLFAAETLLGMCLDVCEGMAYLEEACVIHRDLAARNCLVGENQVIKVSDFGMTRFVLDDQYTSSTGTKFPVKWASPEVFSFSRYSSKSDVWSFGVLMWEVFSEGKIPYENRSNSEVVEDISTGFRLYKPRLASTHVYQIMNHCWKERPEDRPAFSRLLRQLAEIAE
Procedure: Compounds were screened using the HITHUNTER™ enzyme fragment complementation method (Discoverx). Briefly, a recombinantly produced, N-terminally His-tagged ITK kinase domain (amino acids 352-617) was incubated with various concentrations of individual compounds. ATP and substrate were added, and the kinase reaction was allowed to proceed for 2-16 hours. Commercially available detection reagents were added and allowed to react for 2-4 hours. The reaction was evaluated by luminescence. Initial results were confirmed using full-length recombinant ITK protein.
(§1) In order to confirm the mechanism by which compounds depicted herein interact with the kinase domain of Tec and EGFR kinases, we created a point mutant of the ITK kinase domain, whereby the key amino acid, namely C442 was mutated to alanine. The protein was expressed in a commercial baculovirus expression system using the manufacturer's general protocol (Invitrogen, pBlueBac). Protein was expressed and purified using standard techniques. […] While the activity of WT-ITK was inhibited by compounds depicted in this application, the same compounds had no activity towards the C442A mutant kinase domain.

LCK kinase domain = target: T2, LCK kinase domain (Homo sapiens, UniProt P06239); test: In vitro kinase assay (HITHUNTER), LCK; type: biochemical; conditions: Table 2
T2 construct: The kinase domains of BTK, LCK and ERK were expressed as recombinant purified proteins; made in house
T2 sequence (P06239 245-498 limits assumed, species assumed): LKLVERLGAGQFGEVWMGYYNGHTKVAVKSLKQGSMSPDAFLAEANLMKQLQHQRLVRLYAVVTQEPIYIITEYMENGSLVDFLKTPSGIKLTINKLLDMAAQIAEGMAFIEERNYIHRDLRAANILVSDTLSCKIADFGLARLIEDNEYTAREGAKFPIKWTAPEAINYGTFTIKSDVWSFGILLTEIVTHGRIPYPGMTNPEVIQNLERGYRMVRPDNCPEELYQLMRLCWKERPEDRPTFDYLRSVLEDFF
Text: (§2) Similarly, commercially available reagents such as HITHUNTER™ were used to evaluate the effect of compounds on the activity of additional kinases. The kinase domains of BTK, LCK and ERK were expressed as recombinant purified proteins were used for these studies.

BTK kinase domain = target: T3, BTK kinase domain (Homo sapiens, UniProt Q06187); test: In vitro kinase assay (HITHUNTER), BTK; type: biochemical
T3 construct: The kinase domains of BTK, LCK and ERK were expressed as recombinant purified proteins; made in house
T3 sequence (Q06187 402-655 limits assumed): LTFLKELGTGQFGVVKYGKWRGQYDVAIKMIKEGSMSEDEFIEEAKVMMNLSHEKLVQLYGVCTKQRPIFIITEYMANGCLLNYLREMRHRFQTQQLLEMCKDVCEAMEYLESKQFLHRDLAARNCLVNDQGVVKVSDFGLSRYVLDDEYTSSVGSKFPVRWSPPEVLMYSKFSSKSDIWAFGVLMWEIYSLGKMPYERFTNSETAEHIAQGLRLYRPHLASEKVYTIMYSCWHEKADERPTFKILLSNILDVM
Text: as §2

[1] = tested on: T cell leukemia/lymphoma cells; test: Mouse in vivo tumor model, peritoneal lavage and FACS analysis; set-up: species or system NOD/SCID mice; conditions: ip, intraperitoneal, relative to mock group treated with vehicle, read-out: % inhibition tumor growth
Procedure: Several representative compounds were evaluated for efficacy in mouse in vivo tumor models. NOD/SCID mice were implanted intraperitoneally with T cell leukemia/lymphoma cells. One group was treated with vehicle alone (mock treatment) while the other groups were treated with several small molecule inhibitors via intraperitoneal route. Tumor growth was evaluated by peritoneal lavage and FACS analysis. Table 6 summarizes percent inhibition of tumor growth relative to a mock group treated with vehicle alone.

C442A-ITK kinase domain = target: T4, C442A-ITK kinase domain (Homo sapiens, UniProt Q08881, C442A); test: In vitro kinase assay, C442A point mutant of ITK kinase domain; type: biochemical; conditions: Table 8
T4 construct: we created a point mutant of the ITK kinase domain; made in house; host or cells: baculovirus expression system (Invitrogen, pBlueBac)
T4 sequence (Q08881 363-615 C442A limits assumed): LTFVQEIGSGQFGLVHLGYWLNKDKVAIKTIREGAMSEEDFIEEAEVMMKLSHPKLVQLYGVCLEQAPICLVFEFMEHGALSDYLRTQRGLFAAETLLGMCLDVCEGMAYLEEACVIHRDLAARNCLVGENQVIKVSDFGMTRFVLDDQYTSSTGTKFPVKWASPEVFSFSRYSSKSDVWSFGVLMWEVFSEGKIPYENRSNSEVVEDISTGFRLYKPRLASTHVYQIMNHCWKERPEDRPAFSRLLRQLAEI
Text: as §1

[2] = Table 8, wild type ITK kinase domain, read-out: IC50 wild-type ITK

Row | SMILES | IC50 (ITK kinase domain; Table 2, read-out: IC50 ITK) [nM] | IC50 (BTK kinase domain; Table 2) [nM] | IC50 (LCK kinase domain) [nM] | other results
1 | CN(C)C1CCN(CCC(=O)C2=CC3NCC(=O)OC3C=C2)CC1 (stereo not drawn) | – | – | – | inhibition in vivo at 80 mg/kg [1]: 99%
2 | O=C(CCN1CCOCC1)c1cc2ccccc2cn1 [drawing 247] | – | – | – | inhibition in vivo at 80 mg/kg [1]: 92 to 99%
3 | O=C(CCN1CCOCC1)c1ccc(N2CCOCC2)cc1 | 1410 | 4140 | 27100 | –
4 | O=C(CCN1CCOCC1)c1ccc2occc2c1 [drawing 246] | – | – | – | inhibition in vivo at 80 mg/kg [1]: 67 to 81%
5 | COc1ccc(C(=O)CCN2CCC(N(C)C)CC2)cc1OC | – | – | – | inhibition in vivo at 80 mg/kg [1]: 81 to 95%
6 | O=C(CCN1CCOCC1)c1ccc(-c2cccnc2)cc1 | – | – | – | inhibition in vivo at 100 mg/kg [1]: 99%
7 | O=C(CCN1CCOCC1)c1ccccc1Cl [drawing 133] | – | – | 28100 | –
8 | O=C(CCN1CCOCC1)c1ccccc1C(F)(F)F | 569 | 1020 | – | IC50 LCK (LCK kinase domain): NO IC50
9 | O=C(CCN1CCOCC1)c1ccccc1Cl [drawing 149] | – | – | – | IC50 LCK (LCK kinase domain): NO IC50
10 | CN(C)C1CCN(CCC(=O)c2ccc3c(c2)NC(=O)CO3)C1 (stereo not drawn) | – | – | – | inhibition in vivo at 100 mg/kg [1]: 99%
11 | NC(=O)c1ccc2cc(C(=O)CCN3CCOCC3)ccc2c1 [drawing 250] | – | – | – | inhibition in vivo at 30 mg/kg ([1]; 30 mg/kg): 99%
12 | Cc1ccc(C(=O)CCN2CCOCC2)c(C)c1 | 385 | 1480 | 25300 | –
13 | O=C(CCN1CCOCC1)c1ccc2c(c1)OCO2 | 385 | 3920 | 23300 | –
14 | O=C(CCN1CCOCC1)c1cccc(Oc2ccccc2)c1 | 207 | 94.1 | 18500 | –
15 | O=C(CCN1CCOCC1)c1ccc(Oc2ccccc2)cc1 | 91 | 94.1 | 18500 | –
16 | COc1cc(OC)cc(C(=O)CCN2CCOCC2)c1 | 5 | 425 | 12600 | –
17 | O=C(CCN1CCOCC1)c1ccc(F)cc1C(F)(F)F | 468 | 1220 | – | IC50 LCK (LCK kinase domain): NO IC50
18 | COc1ccc(C(=O)CCN2CCOCC2)cc1OC [drawing 124] | 14 | 1840 | 23900 | –
19 | COc1ccc(C(=O)CCN2CCOCC2)c(OC)c1 | 345 | 3140 | 21100 | –
20 | O=C1COc2ccc(C(=O)CCN3CCOCC3)cc2N1 [drawing 120] | 40 | 276 | 2890 | –
21 | O=C(CCN1CCOCC1)c1ccc(C(F)(F)F)cc1 | 199 | 474 | – | IC50 LCK (LCK kinase domain): NO IC50
22 | O=C(CCN1CCOCC1)c1c(Cl)cccc1Cl | 207 | 80.7 | – | IC50 LCK (LCK kinase domain): NO IC50
23 | O=C(CCN1CCOCC1)c1ccc(OC(F)(F)F)cc1 | 219 | 1310 | – | IC50 LCK (LCK kinase domain): NO IC50

Row | SMILES | IC50 (ITK kinase domain; Table 2, read-out: IC50 ITK) [nM] | IC50 (BTK kinase domain; Table 2) [nM] | IC50 (LCK kinase domain) [nM] | other results
24 | COc1cc2c(cc1OC)CN(CCC(=O)c1ccc3c(c1)NC(=O)CO3)CC2 [drawing 249] | – | – | – | inhibition in vivo at 80 mg/kg [1]: 97 to 99%
25 | COc1ccc(C(=O)CCN2CCOCC2)cc1OC [drawing 242] | – | – | – | inhibition in vivo at 80 mg/kg [1]: 92 to 99%
26 | O=C(CCN1CCOCC1)c1ccc(-c2ccccc2)cc1 | 40.2 | 36.9 | 8040 | –
27 | Cc1ccccc1C(=O)CCN1CCOCC1 | 611 | 2310 | – | IC50 LCK (LCK kinase domain): NO IC50
28 | O=C(CCN1CCOCC1)c1ccc2ccccc2c1 [drawing 241] | – | – | – | inhibition in vivo at 100 mg/kg [1]: 85 to 98%
29 | O=C(CCN1CCOCC1)c1cc(F)ccc1Cl | 935 | 993 | 29500 | –
30 | O=C(CCN1CCOCC1)c1ccccc1Br | 305 | 741 | – | IC50 LCK (LCK kinase domain): NO IC50
31 | CN(C)C1CCN(CCC(=O)c2ccc3ccccc3c2)C1 (stereo not drawn) [drawing 257] | – | – | – | IC50 (ITK kinase domain; [2]): 11 nM; IC50 (C442A-ITK kinase domain): > 10000 nM
32 | O=C(CCN1CCOCC1)c1cccc2ccccc12 | 65 | 398 | 23200 | –
33 | CN(CCC(=O)C1=CC2NCC(=O)OC2C=C1)Cc1ccc(F)cc1 (stereo not drawn) | – | – | – | inhibition in vivo at 80 mg/kg [1]: 90 to 99%
34 | CS(=O)(=O)c1ccc(C(=O)CCN2CCOCC2)cc1 | 385 | 753 | 23900 | –
35 | O=C(CCN1CCOCC1)c1cc(F)ccc1F | 874 | 2580 | – | IC50 LCK (LCK kinase domain): NO IC50
36 | O=C(CCN1CCOCC1)c1ccc2c(c1)OCCO2 | 96 | 1540 | 20800 | –
37 | CN(C)C1CCN(CCC(=O)c2ccc3ccccc3c2)C1 (stereo not drawn) [drawing 240] | – | – | – | inhibition in vivo at 100 mg/kg [1]: 70 to 90%
38 | O=C(CCN1CCOCC1)c1ccc(F)cc1 [drawing 258] | – | – | – | IC50 (ITK kinase domain; [2]): 49.6 nM; IC50 (C442A-ITK kinase domain): > 10000 nM
39 | O=C(CCN1CCOCC1)c1ccc(F)cc1 [drawing 243] | – | – | – | inhibition in vivo at 80 mg/kg [1]: 50 to 80%
40 | O=C(CCN1CCOCC1)c1ccc(F)cc1F | 56 | 865 | – | IC50 LCK (LCK kinase domain): NO IC50
41 | O=C1COc2ccc(C(=O)CCN3CCOCC3)cc2N1 [drawing 253] | – | – | – | inhibition in vivo at 20 mg/kg ([1]; 20 mg/kg): 40%
42 | CCOc1ccccc1C(=O)CCN1CCOCC1 | 1280 | 556 | 705000 | –
43 | CC(C)N(CCC(=O)c1ccc2ccccc2c1)C(C)C [drawing 179] | – | – | – | IC50 (ITK kinase domain; Table 3, naphthyl analog, read-out: IC50 ITK): 9 nM; IC50 (BTK kinase domain; Table 3, naphthyl analog): 0.72 nM
44 | O=C(CCN1CCOCC1)c1ccc2ccccc2n1 | – | – | – | IC50 (ITK kinase domain; Table 4, read-out: IC50 ITK): 48 nM; IC50 (BTK kinase domain; Table 4): 5000 nM
45 | O=C(CCN1CCOCC1)c1ccc2ccccc2c1 [drawing 129] | 36 | 39 | 20000 | –

The next lines start with results.

Row | IC50 (ITK kinase domain; Table 2, read-out: IC50 ITK) [nM] | IC50 (BTK kinase domain; Table 2) [nM] | IC50 (LCK kinase domain) [nM] | SMILES | other results
46 | 25 | 365 | – | O=C(CCN1CCOCC1)c1cccc(Br)c1 | IC50 LCK (LCK kinase domain): NO IC50
47 | 13 | 102 | 34100 | O=C(CCN1CCOCC1)c1ccc(Cl)c(Cl)c1 | –
48 | 180 | 1520 | 164000 | Cc1ccc(C(=O)CCN2CCOCC2)cc1 | –
49 | 104 | 232 | – | O=C(CCN1CCOCC1)c1ccc(Br)cc1 | IC50 LCK (LCK kinase domain): NO IC50
50 | 77 | 775 | 47600 | O=C(CCN1CCOCC1)c1cccc(Cl)c1 | –
51 | 35 | 942 | 16400 | COc1cccc(C(=O)CCN2CCOCC2)c1 | –
52 | 13 | 1410 | 27700 | O=C(CCN1CCOCC1)c1ccc(F)cc1 [drawing 122] | –
53 | 43 | 656 | 27100 | O=C(CCN1CCOCC1)c1cccc(C(F)(F)F)c1 | –
54 | 381 | 3030 | 32600 | O=C(CCN1CCOCC1)c1cccc(F)c1 | –
55 | 65 | 1240 | 18400 | CC(=O)Nc1cccc(C(=O)CCN2CCOCC2)c1 | –
56 | 223 | 1480 | 21200 | Cc1ccc(C(=O)CCN2CCOCC2)cc1C | –
57 | 148 | 774 | 28000 | O=C(CCN1CCOCC1)c1cccc(OC(F)(F)F)c1 | –
58 | 560 | 3070 | 24400 | Cc1cccc(C(=O)CCN2CCOCC2)c1 | –
59 | 186 | 3680 | 20600 | CN(C)c1cccc(C(=O)CCN2CCOCC2)c1 | –
60 | 290 | 682 | 25900 | O=C(CCN1CCOCC1)c1ccc(Cl)cc1 | –
61 | 29 | 643 | 413000 | N#Cc1cccc(C(=O)CCN2CCOCC2)c1 | –
62 | 208 | 2890 | 33100 | O=C(CCN1CCOCC1)c1ccc(F)c(F)c1 | –
63 | 72 | 737 | – | N#Cc1ccc(C(=O)CCN2CCOCC2)cc1 | IC50 LCK (LCK kinase domain): NO IC50
